Test results published in patent publication US20210277003A1, “OGA INHIBITOR COMPOUNDS” (Janssen Pharmaceutica NV, priority 2018, published 2021).

Experiments:
[1] = tested on: OGA in HEK293 cells inducible for P301L mutant human Tau (isoform 2N4R); experiment: OGA cellular assay: immunocytochemical detection of O-GlcNAcylated proteins (CTD110.6 antibody); format: cell-based; conditions: Homo sapiens, HEK293, 6 h, 6 hours incubation; for Emax: maximum = Thiamet G 200 uM; for EC50: read-out: Cellular hOGA, pEC50 (converted)
Description: HEK293 cells inducible for P301L mutant human Tau (isoform 2N4R) were established at Janssen. Thiamet-G was used for both plate validation (high control) and as reference compound (reference EC50 assay validation). OGA inhibition is evaluated through the immunocytochemical (ICC) detection of O-GlcNAcylated proteins by the use of a monoclonal antibody (CTD110.6; Cell Signaling, #9875) detecting 0-GlcNAcylated residues as previously described (Dorfmueller et al. 2010 Chemistry & biology, 17:1250). Inhibition of OGA will result in an increase of O-GlcNAcylated protein levels resulting in an increased signal in the experiment. Cell nuclei are stained with Hoechst to give a cell culture quality control and a rough estimate of immediate compounds toxicity, if any. ICC pictures are imaged with a Perkin Elmer Opera Phenix plate microscope and quantified with the provided software Perkin Elmer Harmony 4.1.
Cells were propagated in DMEM high Glucose (Sigma, #D5796) following standard procedures. 2 days before the cell assay cells are split, counted and seeded in Poly-D-Lysine (PDL) coated 96-wells (Greiner, #655946) plate at a cell density of 12,000 cells per cm^2 (4,000 cells per well) in 100p of Assay Medium (Low Glucose medium is used to reduce basal levels of GlcNAcylation) (Park et al. 2014 The Journal of biological chemistry 289:13519). At the day of compound test medium from assay plates was removed and replenished with 90 µl of fresh Assay Medium. 10p of compounds at a 10 fold final concentration were added to the wells. Plates were centrifuged shortly before incubation in the cell incubator for 6 hours. DMSO concentration was set to 0.2%. Medium is discarded by applying vacuum. For staining of cells medium was removed and cells washed once with 100 μl D-PBS (Sigma, #D8537). From next step onwards unless other stated assay volume was always 50p and incubation was performed without agitation and at room temperature. Cells were fixed in 50 μl of a 4% paraformaldehyde (PFA, Alpha aesar, #043368) PBS solution for 15 minutes at room temperature. […] Before analysis samples were washed 2 times manually for 5 minutes in ICC base buffer.
Imaging is performed using Perkin Elmer Phenix Opera using a water 20× objective and recording 9 fields per well. Intensity readout at 488 nm is used as a measure of O-GlcNAcylation level of total proteins in wells. To assess potential toxicity of compounds nuclei were counted using the Hoechst staining. IC50-values are calculated using parametric non-linear regression model fitting. As a maximum inhibition Thiamet G at a 200 uM concentration is present on each plate. In addition, a concentration response of Thiamet G is calculated on each plate.

[2] = target: T1, recombinant human Meningioma Expressed Antigen 5 (MGEA5), also referred to as O-GlcNAcase (OGA) (Homo sapiens, UniProt O60502); experiment: OGA biochemical assay: inhibition of hydrolysis of fluorescein mono-ß-D-N-Acetyl-Glucosamine (FM-GlcNAc), fluorescence readout; conditions: FM-GlcNAc substrate; for Emax: read-out: Enzymatic Emax (%); for IC50: read-out: Enzymatic hOGA, pIC50 (converted)
T1 construct: Full length OGA enzyme was purchased at OnGene (cat #TP322411); purchased OnGene (so in the source)
T1 sequence (O60502 1-916): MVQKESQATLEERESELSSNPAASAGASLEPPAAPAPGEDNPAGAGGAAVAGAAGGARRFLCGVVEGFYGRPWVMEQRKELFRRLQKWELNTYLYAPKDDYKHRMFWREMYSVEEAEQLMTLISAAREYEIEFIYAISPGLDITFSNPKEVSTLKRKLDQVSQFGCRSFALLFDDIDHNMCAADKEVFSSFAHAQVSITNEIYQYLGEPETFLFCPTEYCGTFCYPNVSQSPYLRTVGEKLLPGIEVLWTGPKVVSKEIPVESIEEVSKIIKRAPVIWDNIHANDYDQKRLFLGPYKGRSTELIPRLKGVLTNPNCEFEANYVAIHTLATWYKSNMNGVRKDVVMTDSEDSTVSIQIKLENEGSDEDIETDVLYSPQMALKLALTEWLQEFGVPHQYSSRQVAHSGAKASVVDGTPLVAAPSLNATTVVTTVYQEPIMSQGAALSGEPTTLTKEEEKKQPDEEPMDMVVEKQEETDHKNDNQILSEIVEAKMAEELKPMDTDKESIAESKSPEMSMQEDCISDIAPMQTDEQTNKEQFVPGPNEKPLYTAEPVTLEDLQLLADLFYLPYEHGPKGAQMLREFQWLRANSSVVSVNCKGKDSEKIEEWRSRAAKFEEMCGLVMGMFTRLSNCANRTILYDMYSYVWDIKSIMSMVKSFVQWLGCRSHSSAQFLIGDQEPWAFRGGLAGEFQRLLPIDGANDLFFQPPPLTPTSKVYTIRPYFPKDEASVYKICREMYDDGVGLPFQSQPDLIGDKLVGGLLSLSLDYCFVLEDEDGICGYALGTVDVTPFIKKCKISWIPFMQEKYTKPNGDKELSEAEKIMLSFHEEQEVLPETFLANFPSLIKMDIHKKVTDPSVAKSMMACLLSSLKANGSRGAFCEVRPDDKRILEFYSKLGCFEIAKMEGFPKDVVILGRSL
Source text: The assay is based on the inhibition of the hydrolysis of fluorescein mono-ß-D-N-Acetyl-Glucosamine (FM-GlcNAc) (Mariappa et al. 2015, Biochem J 470:255) by the recombinant human Meningioma Expressed Antigen 5 (MGEA5), also referred to as O-GlcNAcase (OGA). The hydrolysis FM-GlcNAc (Marker Gene technologies, cat #M1485) results in the formation of ß-D-N-glucosamineacetate and fluorescein. The fluorescence of the latter can be measured at excitation wavelength 485 nm and emission wavelength 538 nm. An increase in enzyme activity results in an increase in fluorescence signal. Full length OGA enzyme was purchased at OnGene (cat #TP322411). The enzyme was stored in 25 mM Tris.HCl, pH 7.3, 100 mM glycine, 10% glycerol at −20° C. Thiamet G and GlcNAcStatin were tested as reference compounds (Yuzwa et al. 2008 Nature Chemical Biology 4:483; Yuzwa et al. 2012 Nature Chemical Biology 8:393). The assay was performed in 200 mM Citrate/phosphate buffer supplemented with 0.005% Tween-20. 35.6 g Na2HPO4 2 H2O (Sigma, #C0759) were dissolved in 1 L water to obtain a 200 mM solution. 19.2 g citric acid (Merck, #1.06580) was dissolved in 1 L water to obtain a 100 mM solution. pH of the sodium phosphate solution was adjusted with the citric acid solution to 7.2. The buffer to stop the reaction consists of a 500 mM Carbonate buffer, pH 11.0. 734 mg FM-GlcNAc were dissolved in 5.48 mL DMSO to obtain a 250 mM solution and was stored at −20° C. OGA was used at a 2 nM concentration and FM-GlcNAc at a 100 uM final concentration. Dilutions were prepared in assay buffer. 50 nl of a compound dissolved in DMSO was dispensed on Black Proxiplate™ 384 Plus Assay plates (Perkin Elmer, #6008269) and 3 μl fl-OGA enzyme mix added subsequently. Plates were pre-incubated for 60 min at room temperature and then 2 μl FM-GlcNAc substrate mix added. […] Plates were briefly centrifuged for 1 min at 1000 rpm and incubate at room temperature for 6 h. To stop the reaction 5 μl STOP buffer were added and plates centrifuge again 1 min at 1000 rpm. Fluorescence was quantified in the Thermo Scientific Fluoroskan Ascent or the PerkinElmer EnVision with excitation wavelength 485 nm and emission wavelength 538 nm. For analysis a best-fit curve is fitted by a minimum sum of squares method. From this an IC50 value and Hill coefficient was obtained. High control (no inhibitor) and low control (saturating concentrations of standard inhibitor) were used to define the minimum and maximum values.

SMILES | Emax [1] [%] | EC50 [1] [nM] | Emax [2] [%] | IC50 [2] [nM] | Enzymatic hOGA; pIC50 [2]
CCCCn1ccc2c(Nc3c(F)cncc3C3CC3)nccc21 [Compound 43] | 50 | 676 | 99 | 24 | –
Cc1cc2c(c(C)c1Nc1nccc3c1ccn3CC1CC(F)(F)C1)OCCO2 [Compound 175] | 80.1 | 37.2 | 100 | 6.31 | –
CCCCn1ccc2c(Nc3c(C)cncc3C)nccc21 [Compound 52] | 72 | 26.9 | 103 | 9.55 | –
Cc1cc(Cl)cc(S(C)(=O)=O)c1Nc1nccc2c1ccn2CC1CC(F)(F)C1 [Compound 173] | 88.5 | 158 | 101 | 23.4 | –
Cn1cnc(-n2ccc3c(Nc4c(Cl)cccc4Cl)nccc32)c1 [Compound 167] | 81.9 | ~224 | 102 | 17 | –
Cc1ccnc(C(C)C)c1Nc1nccc2c1ccn2CC(C)(F)F [Compound 147] | 90.9 | ~4.47 | 98.6 | – | 8.81
CCCCn1ccc2c(Nc3c(C)cc4c(c3C)C(=O)N(C)C4)nccc21 [Compound 45] | 87 | 16.6 | 103 | 10.5 | –
Cc1cc(F)cc(C)c1Nc1nccc2c1ccn2CC(C)(F)F [Compound 126] | 87.1 | 10.5 | 100 | – | 8.67
Cc1ccnc(C)c1Nc1nccc2c1ccn2CC1CC(F)(F)C1 [Compound 92] | 75 | 151 | 103 | – | 7.38
Cc1cc(F)cc(F)c1Nc1nccc2c1ccn2CC(F)(F)C(C)C [Compound 186] | 85.9 | 24.5 | 102 | 4.27 | –
CCC(C)Cn1ccc2c(Nc3c(Cl)cccc3Cl)nccc21.Cl (centres unmarked) [Compound 9] | 85 | 30.2 | 105 | – | 8.42
FC(F)(F)CCn1ccc2c(Nc3c(Cl)cccc3Cl)nccc21 [Compound 200] | 70.1 | 513 | 103 | 23.4 | –
CCCCn1ccc2c(Nc3c(F)cncc3C(C)C)nccc21 [Compound 46] | 67 | 251 | 99 | 17.8 | –
Cc1cncc(C(F)(F)F)c1Nc1nccc2c1ccn2CCC1CC1 [Compound 194] | 67.9 | 79.4 | 104 | 7.76 | –
Cc1cc(F)c(F)c(C)c1Nc1nccc2c1ccn2CC(C)(F)F [Compound 153] | 74.1 | 20.4 | 102 | – | 8.52
Cc1cncc(Cl)c1Nc1nccc2c1ccn2CCC1CC1 [Compound 65] | 69 | 120 | 104 | 5.37 | –
Cc1ccnc(C)c1Nc1nccc2c1ccn2CC(C)(C)C#N [Compound 84] | 8 | > 1000 | 86 | 2140 | –
Cc1cc(C(F)(F)F)cc(C)c1Nc1nccc2c1ccn2CC(C)(F)F [Compound 130] | 93.7 | 3.16 | 102 | – | 8.6
Cc1cc(F)cc(Cl)c1Nc1nccc2c1ccn2CC(C)(F)F [Compound 151] | 102 | 10.2 | 100 | – | 8.61
Cc1ccnc(C)c1Nc1nccc2c1ccn2CC1(F)CC1 [Compound 204] | 76.1 | 269 | 101 | 57.5 | –
Cc1cc(F)cc(C(C)C)c1Nc1nccc2c1ccn2CC1CC(F)(F)C1 [Compound 171] | 73.8 | 38.9 | 103 | 6.03 | –
CCCCn1ccc2c(Nc3c(C)ccc4[nH]c(C)nc34)nccc21 [Compound 11] | 80 | 288 | 100 | – | 7.06
Cc1ccnc(OC(F)F)c1Nc1nccc2c1ccn2CC1CC(F)(F)C1 [Compound 114] | 49.6 | 871 | 100 | – | 7.03
Cc1cc(C(F)(F)F)nc(C)c1Nc1nccc2c1ccn2CC(F)(F)C(C)C [Compound 185] | 99.8 | 9.77 | 102 | 2.24 | –
Cc1ccnc(C(C)C)c1Nc1nccc2c1ccn2CC(F)(F)C1CC1 [Compound 85] | 94 | 0.708 | 104 | 0.977 | –
COCCn1ccc2c(Nc3c(Cl)cccc3Cl)nccc21 [Compound 40] | 30 | > 1000 | 102 | 81.3 | –
